Assays:
BGMK = type: cell-based, primate
RK-13 = type: cell-based, rabbit
RL5 = type: cell-based, rabbit

Measured: effect of rapamycin on replication of myxoma virus (virus titre by foci formation on BGMK cells)

CO[C@H]1C[C@@H]2CC[C@@H](C)[C@@](O)(O2)C(=O)C(=O)N2CCCC[C@H]2C(=O)O[C@H]([C@H](C)C[C@@H]2CC[C@@H](O)[C@H](OC)C2)CC(=O)[C@H](C)/C=C(\C)[C@@H](O)[C@@H](OC)C(=O)[C@H](C)C[C@H](C)/C=C/C=C/C=C/1C [rapamycin]
no effect: BGMK | RK-13 | RL5

Source: patent US9987315B2 (priority 2005, dated 2018)
